Target: recombinant HCV NS5B (HCV RNA-dependent RNA polymerase) (Hepatitis C virus genotype 1b, UniProt P26663)
Experiment: biochemical
Conditions: HCV polymerase activity, list of compounds of Example 27; read-out: IC50 (polymerase activity)

recombinant HCV NS5B (HCV RNA-dependent RNA polymerase), sequence (P26663 2420-3010 limits assumed): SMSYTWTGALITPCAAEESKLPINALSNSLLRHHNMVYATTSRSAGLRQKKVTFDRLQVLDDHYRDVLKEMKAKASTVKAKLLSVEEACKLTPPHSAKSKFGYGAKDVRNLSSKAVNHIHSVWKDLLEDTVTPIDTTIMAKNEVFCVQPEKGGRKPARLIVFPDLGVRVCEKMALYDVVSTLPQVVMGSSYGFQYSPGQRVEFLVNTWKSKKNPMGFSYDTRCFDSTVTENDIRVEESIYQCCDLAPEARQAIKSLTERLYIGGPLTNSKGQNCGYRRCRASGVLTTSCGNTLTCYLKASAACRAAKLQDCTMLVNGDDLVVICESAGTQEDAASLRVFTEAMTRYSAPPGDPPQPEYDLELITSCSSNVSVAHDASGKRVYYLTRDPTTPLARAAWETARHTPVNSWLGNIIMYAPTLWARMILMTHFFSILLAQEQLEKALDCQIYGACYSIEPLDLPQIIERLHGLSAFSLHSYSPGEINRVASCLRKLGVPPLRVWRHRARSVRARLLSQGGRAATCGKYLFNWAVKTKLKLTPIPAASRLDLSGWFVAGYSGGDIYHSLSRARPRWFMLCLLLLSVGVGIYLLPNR

Row | Compound | IC50
1 | CC(C)(C)c1ccc(CN(C(=O)C2CCCCC2)c2cc(-c3ccccc3)sc2C(=O)O)cc1 [Compound 441, 3-[(4-TERT-BUTYL-BENZYL)- CYCLOHEXANECARBONYL-AMINO]-5- PHENYL-THIOPHENE-2-CARBOXYLIC ACID] | < 5 µM
2 | CC(C)N(C(=O)c1ccc(Cl)cc1Cl)c1cc(C2CCNCC2)sc1C(=O)O [Compound 526, 3-[(2,4-DICHLORO-BENZOYL)- ISOPROPYL-AMINO]-5-PIPERIDIN-4-YL- THIOPHENE-2-CARBOXYLIC ACID; COMPOUND WITH TRIFLUORO-ACETIC ACID] | > 20 µM
3 | CC(C)CC(=O)N(Cc1ccc([N+](=O)[O-])cc1)c1cc(-c2ccccc2)sc1C(=O)O [Compound 419, 3-[(3-METHYL-BUTYRYL)-(4-NITRO- BENZYL)-AMINO]-5-PHENYL-THIOPHENE- 2-CARBOXYLIC ACID] | < 5 µM
4 | O=C(O)c1sc(-c2ccccc2)cc1N(Cc1ccccc1Cl)C(=O)C1CCC1 [Compound 425, 3-[(2-CHLORO-BENZYL)- CYCLOBUTANECARBONYL-AMINO]-5- PHENYL-THIOPHENE-2-CARBOXYLIC ACID] | 5 to 20 µM
5 | CC(C)CC(=O)N(Cc1ccccc1Cl)c1cc(-c2ccccc2)sc1C(=O)O [Compound 422, 3-[(2-CHLORO-BENZYL)-(3-METHYL- BUTYRYL)-AMINO]-5-PHENYL- THIOPHENE-2-CARBOXYLIC ACID] | 5 to 20 µM
6 | CN(C(=O)c1cc(-c2ccccc2)sc1C(=O)O)c1ccc(Cl)cc1Cl [Compound 585, 3-[(2,4-DICHLORO-PHENYL)-METHYL- CARBAMOYL]-5-PHENYL-THIOPHENE-2- CARBOXYLIC ACID] | 5 to 20 µM
7 | Cc1cccc(CN(C(=O)C(C)C)c2cc(-c3ccccc3)sc2C(=O)O)c1 [Compound 465, 3-[ISOBUTYRYL-(3-METHYL-BENZYL)- AMINO]-5-PHENYL-THIOPHENE-2- CARBOXYLIC ACID] | 5 to 20 µM
8 | CC1CCC(C(=O)N(c2ccncc2)c2cc(-c3ccccc3)sc2C(=O)O)CC1 (centres unmarked) [Compound 525, 3-[(4-METHYL- CYCLOHEXANECARBONYL)-PYRIDIN-4- YL-AMINO]-5-PHENYL-THIOPHENE-2- CARBOXYLIC ACID] | < 5 µM

Same assay, conditions: related polymerase activity (Example 27 list); read-out: IC50

Row | Compound | IC50
9 | Cc1ccc(C(=O)N(C)c2cc(-c3ccccc3)sc2C(=O)O)cc1 [Compound 93, 3-[METHYL-(4-METHYL-BENZOYL)-AMINO]-5-PHENYL-THIOPHENE-2-CARBOXYLIC ACID] | < 5 µM
10 | C=CCN(C(=O)C1CCC1)c1cc(-c2ccccc2)sc1C(=O)O [Compound 398, 3-(ALLYL-CYCLOBUTANECARBONYL- AMINO)-5-PHENYL-THIOPHENE-2- CARBOXYLIC ACID] | > 20 µM
11 | Cc1ccc(S(=O)(=O)Nc2c(C(=O)O)sc(-c3ccccc3)c2C)c(C)c1 [Compound 308, 3-(2,4-DIMETHYL- BENZENESULFONYLAMINO)-4-METHYL- 5-PHENYL-THIOPHENE-2-CARBOXYLIC ACID] | 5 to 20 µM
12 | O=C(O)c1sc(-c2ccccc2)cc1NS(=O)(=O)c1ccc(Cl)cc1 [Compound 18, 3-(4-CHLORO-BENZENESULFONYLAMINO)-5-PHENYL-THIOPHENE-2-CARBOXYLIC ACID] | < 5 µM
13 | C=CCN(C(=O)c1ccc(C)cc1)c1cc(-c2cccc(/C=C/C(=O)O)c2)sc1C(=O)O [Compound 323, 3-[ALLYL-(4-METHYL-BENZOYL)-AMINO]- 5-[3-(2-CARBOXY-VINYL)-PHENYL]- THIOPHENE-2-CARBOXYLIC ACID] | 5 to 20 µM
14 | Cc1ccc(C(=O)N(C)c2cc(-c3ccccn3)sc2C(=O)O)cc1 [Compound 296, 3-[METHYL-(4-METHYL-BENZOYL)-AMINO]-5-PYRIDIN-2-YL-THIOPHENE-2-CARBOXYLIC ACID] | 5 to 20 µM
15 | Cc1c(S(=O)(=O)Nc2cc(-c3ccccc3)sc2C(=O)O)sc2ccc(Cl)cc12 [Compound 38, 3-(5-CHLORO-3-METHYL-BENZO[ B ]THIOPHENE-2-SULFONYLAMINO)-5-PHENYL-THIOPHENE-2-CARBOXYLIC ACID] | < 5 µM
16 | O=C(Nc1cc(Cl)nc(Cl)c1)Nc1cc(-c2ccccc2)sc1C(=O)O [Compound 28, 3-[3-(2,6-DICHLORO-PYRIDIN-4-YL)-UREIDO]-5-PHENYL-THIOPHENE-2-CARBOXYLIC ACID] | < 5 µM
17 | O=C(O)c1sc(-c2ccccc2)cc1NS(=O)(=O)c1cccc(Cl)c1 [Compound 40, 3-(3-CHLORO-BENZENESULFONYLAMINO)-5-PHENYL-THIOPHENE-2-CARBOXYLIC ACID] | < 5 µM
18 | CC(C)N(C(=O)c1ccc(Cl)cc1Cl)c1cc(-c2cc3ccccc3o2)sc1C(=O)O [Compound 376, 5-BENZOFURAN-2-YL-3-[(2,4-DICHLORO- BENZOYL)-ISOPROPYL-AMINO]- THIOPHENE-2-CARBOXYLIC ACID] | < 5 µM
19 | CCCN(C(=O)c1ccc(C)cc1)c1cc(-c2cccc(CCC(=O)O)c2)sc1C(=O)O [Compound 325, 5-[3-(2-CARBOXY-ETHYL)-PHENYL]-3-[(4- METHYL-BENZOYL)-PROPYL-AMINO]- THIOPHENE-2-CARBOXYLIC ACID] | 5 to 20 µM
20 | Cc1ccc(C(=O)N(C)c2cc(-c3cccc([N+](=O)[O-])c3)sc2C(=O)O)cc1 [Compound 196, 3-[METHYL-(4-METHYL-BENZOYL)-AMINO]-5-(3-NITRO-PHENYL)-THIOPHENE-2-CARBOXYLIC ACID] | < 5 µM
21 | O=C(O)c1sc(-c2ccccc2)cc1NS(=O)(=O)c1ccccn1 [Compound 47, 5-PHENYL-3-(PYRIDINE-2-SULFONYLAMINO)-THIOPHENE-2-CARBOXYLIC ACID] | > 20 µM
22 | CC(=O)c1ccc(-c2cc(NS(=O)(=O)c3ccccc3C)c(C(=O)O)s2)s1 [Compound 229, 5′-ACETYL-4-(TOLUENE-2-SULFONYLAMINO)-[2,2′]BITHIOPHENYL-5-CARBOXYLIC ACID] | < 5 µM
23 | Cc1cc(C)c(S(=O)(=O)Nc2cc(-c3ccccc3)sc2C(=O)O)c(C)c1 [Compound 298, 5-PHENYL-3-(2,4,6-TRIMETHYL- BENZENESULFONYLAMINO)- THIOPHENE-2-CARBOXYLIC ACID] | < 5 µM
24 | Cc1cc(S(=O)(=O)Nc2cc(-c3ccccc3)sc2C(=O)O)c(C)cc1Cl [Compound 3, 3-(4-CHLORO-2,5-DIMETHYL-BENZENESULFONYLAMINO)-5-PHENYL-THIOPHENE-2-CARBOXYLIC ACID] | 5 to 20 µM
25 | COc1ccc(-c2cc(NS(=O)(=O)c3ccc(C)cc3C)c(C(=O)O)s2)cc1 [Compound 361, 3-(2,4-DIMETHYL- BENZENESULFONYLAMINO)-5-(4- METHOXY-PHENYL)-THIOPHENE-2- CARBOXYLIC ACID] | < 5 µM
26 | Cc1ccccc1S(=O)(=O)Nc1cc(-c2ccccn2)sc1C(=O)O [Compound 128, 5-PYRIDIN-2-YL-3-(TOLUENE-2-SULFONYLAMINO)-THIOPHENE-2-CARBOXYLIC ACID] | < 5 µM
27 | O=C(O)c1sc(-c2ccccc2)cc1NS(=O)(=O)c1ccc(Cl)c(Cl)c1Cl [Compound 153, 5-PHENYL-3-(2,3,4-TRICHLORO-BENZENESULFONYLAMINO)-THIOPHENE-2-CARBOXYLIC ACID] | < 5 µM
28 | Cc1ccccc1S(=O)(=O)Nc1cc(-c2ccc(Cl)cc2Cl)sc1C(=O)O [Compound 58, 5-(2,4-DICHLORO-PHENYL)-3-(TOLUENE-2-SULFONYLAMINO)-THIOPHENE-2-CARBOXYLIC ACID] | 5 to 20 µM
29 | Cc1cccc(S(=O)(=O)Nc2cc(-c3ccccc3)sc2C(=O)O)c1 [Compound 16, 5-PHENYL-3-(TOLUENE-3-SULFONYLAMINO)-THIOPHENE-2-CARBOXYLIC ACID] | 5 to 20 µM

Source: patent US6881741B2 (ViroChem Pharma Inc., priority 2001, dated 2005)
